From patent publication US20200223826A1, “Glucose-6-Phosphate Dehydrogenase (G6PD)-Modulating Agents And Methods Of Treating G6PD Deficiency” (The Board of Trustees of the Leland Stanford Junior …, priority 2017, published 2020) come the findings set out here.

Series [1] has as its target T1, G6PD in fibroblast cells carrying Mediterranean variant (Homo sapiens, UniProt P11413, S188F).
T1 construct: host or cells: subject-derived fibroblast cell line
Kind of series: Cycloheximide chase in fibroblasts. It counts as cell-based. The settings on record: cycloheximide treatment. As to the method:
(§1) Lymphocytes derived from a normal subject (HG 00866) and a G6PD-deficient subject carrying Canton variant in G6PD (HG 02367) were purchased from Coriell Institute and cultured in RPMI 1640 supplemented with 15% fetal bovine serum (FBS), 100 U/ml penicillin, and 100 μg/ml streptomycin. An SH-SY5Y neuroblastoma cell line was cultured in Dulbecco's Modification of Eagle's Medium/Ham's F-12 50/50 Mix supplemented with 10% FBS, 100 U/ml penicillin, and 100 μg/ml streptomycin. A G6PD-deficient subject-derived fibroblast cell line carrying Mediterranean variant and normal fibroblast cell line as control were purchased from Coriell Institute (GM 01152) and ThermoFisher Scientific (C0135C), respectively, and cultured in minimum essential medium supplemented with 15% FBS, 100 U/ml penicillin, and 100 μg/ml streptomycin. All the cell lines were maintained at 37° C. in a humidified incubator with an atmosphere of 5% of CO2 and 95% air.
(§2) 50,000 cells (SH-SH5Y cells or fibroblast cells) or 100,000 cells (lymphocytes) were seeded in a 12-well plate and incubated overnight. The cells were subjected to serum starvation (50-75%) for 48 hours and treated with 50 μg/ml of cycloheximide at different time points (0-48 hours). The cells were treated with the compound (1 μM) for 48 hours together with cycloheximide. […]

Series [2] concerns lymphocytes carrying the Canton variant. Kind of series: Viability of lymphocytes. It counts as cell-based, human. The settings on record: treatment with AG1 for 24 hours. As to the method:
Cell viability was measured using a Cell-Counting Kit-8 (CCK-8, Dojindo), utilizing WST-8 [2-(2-methoxy-4-nitrophenyl)-3-(4-nitrophenyl)-5-(2,4-disulfophenyl)-2H-tetrazolium monosodium salt, according to the manufacturer's instructions. Cells were subjected to serum starvation for 48 hours before measurement. Cells in 100 μL of medium per well were treated with 10 μL of CCK-8 solution and incubated for 2 hours at 37° C. The absorbance was read at 450 nm. Viability of lymphocytes was measured by staining with a 0.4% solution of trypan blue in buffered isotonic salt solution (pH 7.2). The viability was calculated as the number of viable cells (non-stained by the dye) divided by the total number of cells within the grids on the hemacytometer. Cells were treated with 1 μM of the compound 24 hours before the measurement.

Series [3] deals with zebrafish embryos. Kind of series: Zebrafish embryo development. It counts as in vivo. The following applies: treated at 24 hpf, scored at 32 or 48 hpf. On the procedure:
Adult zebrafish (AB strain; 3-18 months old) were raised and embryos were obtained through natural mating and staged according to standard protocols. Adult tbx16b104/+ were obtained. All animal procedures were performed according to NIH guidelines. Embryos were raised in E3 medium at 28.5° C.
Embryos were dechorinated with pronase at 24 hours post fertilization (hpf) and treated with 50 μg/ml of chloroquine and/or AG1 by directly adding the compounds to the well. For ROS measurements, embryos were incubated with compounds for 2 hours, and then the ROS detecting reagent (CM-H2DCFDA) was added at a final concentration of 500 ng/ml to the well for a total treatment time of 5 hours. One embryo was placed to each well of a black, opaque 96-well plate. The florescence was analyzed with excitation/emission at 485/525 nm. After ROS assays, embryos at about 32 hpf were pooled and lysed in buffer containing 50 mM Tris (pH 7.4), 150 mM NaCl, 1 mM EDTA, 0.1% NP-40, and protease inhibitor cocktail, which was followed by three cycles of freeze and thawing in liquid nitrogen. The lysate was centrifuged at 14,000 rpm at 4° C. for 15 minutes. Total protein concentration in the supernatants (total lysate) was determined by Bradford method. […] 50 μg of the lysate was used to measure NADPH levels using a NADPH quantification kit (Biovision), according to the manufacturer's instructions. […]

Series [4] has as its target aldehyde dehydrogenase 3A1 (ALDH3A1) (Homo sapiens, UniProt P30838). Kind of series: Selectivity: dimerization or activity of other NAD/NADP+-dependent enzymes. It counts as biochemical.
The target of series [5] is T2, Canton G6PD in lymphocytes carrying the Canton variant (Homo sapiens, UniProt P11413, R459L).
T2 construct: host or cells: lymphocytes from a G6PD-deficient subject
T2 sequence (P11413 2-515 R459L limits assumed): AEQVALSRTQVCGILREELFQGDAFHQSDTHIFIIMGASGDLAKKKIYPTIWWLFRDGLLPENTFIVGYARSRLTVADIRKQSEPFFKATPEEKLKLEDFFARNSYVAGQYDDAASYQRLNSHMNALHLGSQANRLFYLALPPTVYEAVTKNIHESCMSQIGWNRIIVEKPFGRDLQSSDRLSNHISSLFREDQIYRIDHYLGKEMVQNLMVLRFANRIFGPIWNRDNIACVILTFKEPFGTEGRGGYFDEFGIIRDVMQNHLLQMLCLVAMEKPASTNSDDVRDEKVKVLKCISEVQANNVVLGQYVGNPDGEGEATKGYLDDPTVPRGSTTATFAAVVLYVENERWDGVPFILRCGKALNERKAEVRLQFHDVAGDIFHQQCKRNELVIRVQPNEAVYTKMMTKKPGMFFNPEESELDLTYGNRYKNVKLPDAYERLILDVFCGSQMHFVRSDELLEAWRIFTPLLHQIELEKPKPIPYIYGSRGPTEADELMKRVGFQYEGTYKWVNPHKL
Put plainly: Cycloheximide chase assay in lymphocytes. It counts as cell-based. The following applies: 1 μM; 24 hours following cycloheximide treatment. On the procedure: as §1, §2

Series [6] deals with zebrafish embryos. Put plainly: Pericardial edema in zebrafish embryos. It counts as in vivo. On the procedure:
Embryos were dechorinated with pronase at 24 hours post fertilization (hpf) and treated with 50 μg/ml of chloroquine and/or AG1 by directly adding the compounds to the well. For ROS measurements, embryos were incubated with compounds for 2 hours, and then the ROS detecting reagent (CM-H2DCFDA) was added at a final concentration of 500 ng/ml to the well for a total treatment time of 5 hours. One embryo was placed to each well of a black, opaque 96-well plate. The florescence was analyzed with excitation/emission at 485/525 nm. After ROS assays, embryos at about 32 hpf were pooled and lysed in buffer containing 50 mM Tris (pH 7.4), 150 mM NaCl, 1 mM EDTA, 0.1% NP-40, and protease inhibitor cocktail, which was followed by three cycles of freeze and thawing in liquid nitrogen. The lysate was centrifuged at 14,000 rpm at 4° C. for 15 minutes. Total protein concentration in the supernatants (total lysate) was determined by Bradford method. 50 μg of total lysate was loaded onto 10% SDS-PAGE gels and the protein level was examined by Western blot using anti-G6PD antibody (Abcam (G6PD: AB87230)). 10 μg of total lysate was used for enzymatic assay. 50 μg of the lysate was used to measure NADPH levels using a NADPH quantification kit (Biovision), according to the manufacturer's instructions.
Live embryos were anesthetized and mounted in 3% methylcellulose. Embryos were imaged with a Leica M205FA microscope equipped with a 1.0× Plan Apochromatic objective and a SPOT Flex camera or a Leica DM4500B compound microscope equipped with a QImaging Retiga-SRV camera. For hemoglobin staining, fixed embryos were stained with o-dianisidine as previously reported (10), cleared, mounted in 100% glycerol, and imaged with a Leica M205FA microscope equipped with a 1.0× Plan Apochromatic objective and a SPOT Flex camera. All images were captured using SPOT or MetaMorph imaging software (Diagnostic Imaging Inc.) and processed in Photoshop (Adobe). Adjustments were limited to brightness levels and cropping. Analysis was carried out by an observer blinded to the experimental conditions.

Series [7] deals with aldehyde dehydrogenase 2 (ALDH2) (Homo sapiens, UniProt P05091). Kind of series: Selectivity: dimerization or activity of other NAD/NADP+-dependent enzymes. It counts as biochemical.
aldehyde dehydrogenase 2 (ALDH2), sequence (P05091 18-517, species assumed): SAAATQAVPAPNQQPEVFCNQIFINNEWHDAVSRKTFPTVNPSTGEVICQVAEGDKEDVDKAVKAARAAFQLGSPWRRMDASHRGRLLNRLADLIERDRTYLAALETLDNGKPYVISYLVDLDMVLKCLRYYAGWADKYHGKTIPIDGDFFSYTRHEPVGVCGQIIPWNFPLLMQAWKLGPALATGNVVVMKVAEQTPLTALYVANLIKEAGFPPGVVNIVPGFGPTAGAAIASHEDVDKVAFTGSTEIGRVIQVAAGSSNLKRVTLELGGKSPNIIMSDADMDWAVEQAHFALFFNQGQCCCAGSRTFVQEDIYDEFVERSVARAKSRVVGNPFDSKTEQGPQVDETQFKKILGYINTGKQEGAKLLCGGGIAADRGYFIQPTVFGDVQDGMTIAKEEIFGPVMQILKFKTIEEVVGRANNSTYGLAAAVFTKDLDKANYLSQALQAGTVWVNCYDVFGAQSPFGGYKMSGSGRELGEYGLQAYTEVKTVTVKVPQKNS

aldehyde dehydrogenase 3A1 (ALDH3A1), sequence (P30838 whole entry, species assumed): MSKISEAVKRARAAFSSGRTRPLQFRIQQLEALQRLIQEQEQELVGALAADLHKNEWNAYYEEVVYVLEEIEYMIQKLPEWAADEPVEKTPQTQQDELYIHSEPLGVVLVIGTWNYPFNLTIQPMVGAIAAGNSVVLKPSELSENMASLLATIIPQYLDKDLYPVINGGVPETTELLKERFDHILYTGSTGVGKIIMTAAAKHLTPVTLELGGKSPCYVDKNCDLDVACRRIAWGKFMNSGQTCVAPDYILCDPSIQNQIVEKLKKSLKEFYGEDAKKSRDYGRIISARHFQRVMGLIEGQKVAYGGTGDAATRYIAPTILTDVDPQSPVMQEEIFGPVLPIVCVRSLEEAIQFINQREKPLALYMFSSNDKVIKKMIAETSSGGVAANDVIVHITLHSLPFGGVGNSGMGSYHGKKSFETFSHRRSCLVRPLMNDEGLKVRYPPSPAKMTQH
T1 sequence (P11413 2-515 S188F limits assumed): as the sequence (P11413 2-515 R459L limits assumed) above, with S187F, L458R counted along it

As to `SCCNCCc1c[nH]c2ccccc12` [AG1, 2-[2-(1H-indol-3-yl)ethylamino]ethanethiol], in series [1], the “stability of G6PD” value was “stabilized”. Also, the viability result in series [2] is “improved”. The “concentrations at which embryos developed normally” value in the series on zebrafish embryos [3] was under 10 µM. Besides, the “effect on dimerization or activity” value in series [4] and in series [7] was “no effect” each time. Moreover, the “level of Canton protein, higher relative to vehicle treatment” value in series [5] is given as 48%. Moreover, in the series with zebrafish embryos [6] (chloroquine 50 μg/ml), the “embryos exhibiting pericardial edema” value is on record as “less embryos exhibiting pericardial edema”. In the series on zebrafish embryos [6] (tbx16 mutants), the “pericardial edema due to mesoderm defects” value was “not corrected”.
